According to US10336759B2, “Salts and processes of preparing a PI3K inhibitor” (Incyte Corporation, priority 2015, dated 2019):

Columns and labels:
JAK2 = JAK2 (Homo sapiens (Human), UniProt O60674); experiment: Assay A, JAK2 versus JAK1 (ratio); type: biochemical; details: ratio of IC50s, Assay A at 1 mM ATP
JAK1 = JAK1 (Homo sapiens (Human), UniProt P23458); experiment: Assay A, JAK1 IC50 at 1 mM ATP; type: biochemical; details: method of Assay A at 1 mM ATP; #3 data for enantiomer 1, #14 data for enantiomer 2
Chain of JAK1 (P23458 whole entry, species assumed): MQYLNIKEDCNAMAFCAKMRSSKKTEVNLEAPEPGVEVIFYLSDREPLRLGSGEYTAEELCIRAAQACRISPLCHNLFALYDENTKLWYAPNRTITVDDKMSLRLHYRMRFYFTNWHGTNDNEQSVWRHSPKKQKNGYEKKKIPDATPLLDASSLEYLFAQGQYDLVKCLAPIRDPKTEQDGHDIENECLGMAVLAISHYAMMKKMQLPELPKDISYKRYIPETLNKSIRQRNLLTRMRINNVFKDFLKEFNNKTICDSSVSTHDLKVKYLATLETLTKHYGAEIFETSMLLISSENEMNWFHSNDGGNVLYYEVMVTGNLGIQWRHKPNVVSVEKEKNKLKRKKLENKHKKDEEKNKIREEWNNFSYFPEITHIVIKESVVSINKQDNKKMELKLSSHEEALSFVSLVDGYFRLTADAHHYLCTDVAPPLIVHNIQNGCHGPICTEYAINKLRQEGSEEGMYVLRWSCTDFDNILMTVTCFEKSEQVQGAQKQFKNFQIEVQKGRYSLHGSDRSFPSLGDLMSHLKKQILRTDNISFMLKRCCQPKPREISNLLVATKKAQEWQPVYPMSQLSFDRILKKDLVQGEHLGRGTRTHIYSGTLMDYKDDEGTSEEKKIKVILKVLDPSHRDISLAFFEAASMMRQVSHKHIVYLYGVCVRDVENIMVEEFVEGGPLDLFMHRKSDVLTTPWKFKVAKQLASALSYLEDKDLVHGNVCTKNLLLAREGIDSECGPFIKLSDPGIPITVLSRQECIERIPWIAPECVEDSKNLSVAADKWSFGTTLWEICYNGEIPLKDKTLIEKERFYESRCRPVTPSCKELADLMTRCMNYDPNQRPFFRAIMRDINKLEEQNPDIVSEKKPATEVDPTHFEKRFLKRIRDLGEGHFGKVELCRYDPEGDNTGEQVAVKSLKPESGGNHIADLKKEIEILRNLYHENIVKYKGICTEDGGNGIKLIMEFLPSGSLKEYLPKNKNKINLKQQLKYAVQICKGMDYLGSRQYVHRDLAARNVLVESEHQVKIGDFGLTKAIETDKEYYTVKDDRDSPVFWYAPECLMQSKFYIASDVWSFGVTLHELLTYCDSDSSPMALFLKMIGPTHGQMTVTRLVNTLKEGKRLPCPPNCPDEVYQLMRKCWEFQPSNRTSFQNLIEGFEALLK

Chain of JAK2 (O60674 whole entry, species assumed): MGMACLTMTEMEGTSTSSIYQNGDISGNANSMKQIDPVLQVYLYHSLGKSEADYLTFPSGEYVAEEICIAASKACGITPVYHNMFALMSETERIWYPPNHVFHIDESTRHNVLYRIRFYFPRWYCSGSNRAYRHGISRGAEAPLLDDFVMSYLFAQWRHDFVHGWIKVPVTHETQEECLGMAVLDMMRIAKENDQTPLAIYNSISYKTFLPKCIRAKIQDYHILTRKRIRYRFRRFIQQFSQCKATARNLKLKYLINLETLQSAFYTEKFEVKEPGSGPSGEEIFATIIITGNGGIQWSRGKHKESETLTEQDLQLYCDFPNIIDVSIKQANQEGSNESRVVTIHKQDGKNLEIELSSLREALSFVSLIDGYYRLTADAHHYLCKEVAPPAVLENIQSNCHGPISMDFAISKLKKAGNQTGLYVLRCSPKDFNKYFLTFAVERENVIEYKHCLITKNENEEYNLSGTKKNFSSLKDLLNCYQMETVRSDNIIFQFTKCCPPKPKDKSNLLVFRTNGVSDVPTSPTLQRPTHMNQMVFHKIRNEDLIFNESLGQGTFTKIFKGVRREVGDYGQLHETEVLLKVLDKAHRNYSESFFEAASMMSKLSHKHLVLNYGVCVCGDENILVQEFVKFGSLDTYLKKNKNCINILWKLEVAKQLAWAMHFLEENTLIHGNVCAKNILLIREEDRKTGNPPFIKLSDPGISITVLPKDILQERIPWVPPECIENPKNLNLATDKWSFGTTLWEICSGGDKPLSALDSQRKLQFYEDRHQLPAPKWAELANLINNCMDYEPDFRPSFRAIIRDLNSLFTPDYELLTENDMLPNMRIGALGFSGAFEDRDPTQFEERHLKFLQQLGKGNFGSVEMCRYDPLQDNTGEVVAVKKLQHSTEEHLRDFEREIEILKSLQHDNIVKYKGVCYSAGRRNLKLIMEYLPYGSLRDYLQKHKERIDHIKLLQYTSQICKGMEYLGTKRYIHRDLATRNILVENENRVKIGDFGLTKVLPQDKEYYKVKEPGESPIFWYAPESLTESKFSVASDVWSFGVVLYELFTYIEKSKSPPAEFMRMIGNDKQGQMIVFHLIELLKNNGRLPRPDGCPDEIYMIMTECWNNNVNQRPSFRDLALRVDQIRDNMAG

SMILES	JAK2/JAK1 (JAK2)	IC50 (JAK1)
C[C@@H](O)c1nc2cnc3ccsc3c2n1[C@H]1CC[C@H](CC#N)OC1 [Example 1, ((2R,5S)-5-{2-[(1R)-1-hydroxyethyl]-1H-imidazo[4,5-d]thieno[3,2-b]pyridin-1-yl}tetrahydro-2H-pyran-2-yl)acetonitrile]	>10	
N#CC[C@]1(n2cc(-c3ncnc4[nH]ccc34)cn2)C[C@H](N2CCC(Oc3cc(CN4CC(O)C4)cc(C(F)(F)F)n3)CC2)C1 [Example 11, {trans-3-(4-{[4-[(3-hydroxyazetidin-1-yl)methyl]-6-(trifluoromethyl)pyridin-2-yl]oxy}piperidin-1-yl)-1-[4-(7H-pyrrolo[2,3-d]pyrimidin-4-yl)-1H-pyrazol-1-yl]cyclobutyl}acetonitrile]	>10	< 10 nM
C[C@@H](O)CNCc1cc(OC2CCN([C@H]3C[C@](CC#N)(n4cc(-c5ncnc6[nH]ccc56)cn4)C3)CC2)nc(C(F)(F)F)c1 [Example 24, {trans-3-(4-{[4-({[(2R)-2-hydroxypropyl]amino}methyl)-6-(trifluoromethyl)pyridin-2-yl]oxy}piperidin-1-yl)-1-[4-(7H-pyrrolo[2,3-d]pyrimidin-4-yl)-1H-pyrazol-1-yl]cyclobutyl}acetonitrile]	>10	< 10 nM
N#CCC1(n2cc(-c3ncnc4[nH]ccc34)cn2)CN(C2CCN(C(=O)Nc3ccc(F)cc3C(F)(F)F)CC2)C1 [Example 8, 4-{3-(Cyanomethyl)-3-[4-(7H-pyrrolo[2,3-d]pyrimidin-4-yl)-1H-pyrazol-1-yl]azetidin-1-yl}-N-[4-fluoro-2-(trifluoromethyl)phenyl] piperidine-1-carboxamide]	>10	< 10 nM
N#CCC(CN1CCN(C(=O)c2ccc(C#N)cc2F)CC1)n1cc(-c2ncnc3[nH]ccc23)cn1 (stereo not shown) [Example 5, 4-[(4-{3-cyano-2-[4-(7H-pyrrolo[2,3-d]pyrimidin-4-yl)-1H-pyrazol-1-yl)propyl}piperazin-1-yl)carbonyl]-3-fluorobenzonitrile]	>10	< 10 nM
N#CCC(CN1CCN(C(=O)c2ccc(C#N)cc2F)CC1)n1ccc(-c2ncnc3[nH]ccc23)c1 (stereo not shown) [Example 6, 4-[(4-{3-cyano-2-[3-(7H-pyrrolo[2,3-d]pyrimidin-4-yl)-1H-pyrrol-1-yl]propyl}piperazin-1-yl)carbonyl]-3-fluorobenzonitrile]	>10	< 10 nM
C[C@H](O)CNCc1cc(OC2CCN([C@H]3C[C@](CC#N)(n4cc(-c5ncnc6[nH]ccc56)cn4)C3)CC2)nc(C(F)(F)F)c1 [Example 25, {trans-3-(4-{[4-({[(2S)-2-hydroxypropyl]amino}methyl)-6-(trifluoromethyl)pyridin-2-yl]oxy}piperidin-1-yl)-1-[4-(7H-pyrrolo[2,3-d]pyrimidin-4-yl)-1H-pyrazol-1-yl]cyclobutyl}acetonitrile]	>10	< 10 nM
N#CC[C@]1(n2cc(-c3ncnc4[nH]ccc34)cn2)C[C@H](N2CCC(Oc3cc(CCO)cc(C(F)(F)F)n3)CC2)C1 [Example 26, {trans-3-(4-{[4-(2-hydroxyethyl)-6-(trifluoromethyl)pyridin-2-yl]oxy}piperidin-1-yl)-1-[4-(7H-pyrrolo[2,3-d]pyrimidin-4-yl)-1H-pyrazol-1-yl]cyclobutyl}acetonitrile]	>10	< 10 nM
CC(C)(O)c1cc(O[C@H]2CC[C@@H](N3CC(CC#N)(n4cc(-c5ncnc6[nH]ccc56)cn4)C3)CC2)nc(C(F)(F)F)c1 [Example 20, {1-(cis-4-{[4-(1-hydroxy-1-methylethyl)-6-(trifluoromethyl)pyridin-2-yl]oxy}cyclohexyl)-3-[4-(7H-pyrrolo[2,3-d]pyrimidin-4-yl)-1H-pyrazol-1-yl]azetidin-3-yl}acetonitrile]	>10	< 10 nM
N#CCC(C1CCN(c2cccc(Cl)n2)C1)n1cc(-c2ncnc3[nH]ccc23)cn1 (single isomer, unassigned) [Example 3, 3-[1-(6-chloropyridin-2-yl)pyrrolidin-3-yl]-3-[4-(7H-pyrrolo[2,3-d]pyrimidin-4-yl)-1H-pyrazol-1-yl]propanenitrile]	>10	< 10 nM

Next, values leading:

JAK2/JAK1 (JAK2)	IC50 (JAK1)	SMILES
>10	< 10 nM	N#CCC1(n2cc(-c3ncnc4[nH]ccc34)cn2)CN([C@H]2CC[C@@H](Oc3cc(CN4CC[C@@H](O)C4)cc(C(F)(F)F)n3)CC2)C1 [Example 21]
>10	< 10 nM	N#CC[C@]1(n2cc(-c3ncnc4[nH]ccc34)cn2)C[C@H](N2CCN(C(=O)c3ccnc(C(F)(F)F)n3)CC2)C1 [Example 10, [trans-1-[4-(7H-pyrrolo[2,3-d]pyrimidin-4-yl)-1H-pyrazol-1-yl]-3-(4-{[2-(trifluoromethyl)pyrimidin-4-yl]carbonyl}piperazin-1-yl)cyclobutyl]acetonitrile]
>10	< 10 nM	N#CCC1(n2cc(-c3ncnc4[nH]ccc34)cn2)CN([C@H]2CC[C@@H](Oc3cc(CN4CC[C@H](O)C4)cc(C(F)(F)F)n3)CC2)C1 [Example 22, {1-(cis-4-{[4-{[(3S)-3-hydroxypyrrolidin-1-yl]methyl}-6-(trifluoromethyl)pyridin-2-yl]oxy}cyclohexyl)-3-[4-(7H-pyrrolo[2,3-d]pyrimidin-4-yl)-1H-pyrazol-1-yl]azetidin-3-yl}acetonitrile]
>10	< 10 nM	N#CCC1(n2cc(-c3ncnc4[nH]ccc34)cn2)CN(C2CCN(C(=O)c3ccnc(C(F)(F)F)c3F)CC2)C1 [Example 7, {1-{1-[3-Fluoro-2-(trifluoromethyl)isonicotinoyl]piperidin-4-yl}-3-[4-(7H-pyrrolo[2,3-d]pyrimidin-4-yl)-1H-pyrazol-1-yl]azetidin-3-yl}acetonitrile]
>10	< 10 nM	C[C@H](NC(=O)c1cc(F)c(N2CC(CC#N)(n3cc(-c4ncnc5[nH]ccc45)cn3)C2)cc1F)C(F)(F)F [Example 16, 4-{3-(cyanomethyl)-3-[4-(7H-pyrrolo[2,3-d]pyrimidin-4-yl)-1H-pyrazol-1-yl]azetidin-1-yl}-2,5-difluoro-N-[(1S)-2,2,2-trifluoro-1-methylethyl]benzamide]
>10	< 10 nM	CCNCc1cc(O[C@H]2CC[C@@H](N3CC(CC#N)(n4cc(-c5ncnc6[nH]ccc56)cn4)C3)CC2)nc(C(F)(F)F)c1 [Example 19, {1-(cis-4-{[4-[(ethylamino)methyl]-6-(trifluoromethyl)pyridin-2-yl]oxy}cyclohexyl)-3-[4-(7H-pyrrolo[2,3-d]pyrimidin-4-yl)-1H-pyrazol-1-yl]lazetidin-3-yl}acetonitrile]
>10	< 10 nM	N#CC[C@]1(n2cc(-c3ncnc4[nH]ccc34)cn2)C[C@H](N2CCC(Oc3cc(CN4CCC[C@@H]4CO)cc(C(F)(F)F)n3)CC2)C1 [Example 13, {trans-3-(4-{[4-{[(2R)-2-(hydroxymethyl)pyrrolidin-1-yl]methyl}-6-(trifluoromethyl)pyridin-2-yl]oxy}piperidin-1-yl)-1-[4-(7H-pyrrolo[2,3-d]pyrimidin-4-yl)-1H-pyrazol-1-yl]cyclobutyl}acetonitrile]
>10	< 10 nM	N#CCC1(n2cc(-c3ncnc4[nH]ccc34)cn2)CN(C2CCN(C(=O)c3ccnc(C(F)(F)F)n3)CC2)C1 [Example 9, [3-[4-(7H-pyrrolo[2,3-d]pyrimidin-4-yl)-1H-pyrazol-1-yl]-1-(1-{[2,- (trifluoromethyl)pyrimidin-4-yl]carbonyl}piperidin-4-yl)azetidin-3-yl]acetonitrile]
>10	< 10 nM	N#CC[C@]1(n2cc(-c3ncnc4[nH]ccc34)cn2)C[C@H](N2CCC(Oc3cc(CN4CCC[C@H]4CO)cc(C(F)(F)F)n3)CC2)C1 [Example 12]
>10	< 10 nM	N#CCC1(n2cc(-c3ncnc4[nH]ccc34)cn2)CN([C@H]2CC[C@@H](Oc3cc(CCO)nc(C(F)(F)F)n3)CC2)C1 [Example 18, {1-(cis-4-{[6-(2-hydroxyethyl)-2-(trifluoromethyl)pyrimidin-4-yl]oxy}cyclohexyl)-3-[4-(7H-pyrrolo[2,3-d]pyrimidin-4-yl)-1H-pyrazol-1-yl]azetidin-3-yl}acetonitrile]
>10	< 10 nM	C[C@@H](CO)NCc1cc(OC2CCN([C@H]3C[C@](CC#N)(n4cc(-c5ncnc6[nH]ccc56)cn4)C3)CC2)nc(C(F)(F)F)c1 [Example 23, {trans-3-(4-{[4-({[(1S)-2-hydroxy-1-methylethyl]amino}methyl)-6-(trifluoromethyl)pyridin-2-yl]oxy}piperidin-1-yl)-1-[4-(7H-pyrrolo[2,3-d]pyrimidin-4-yl)-1H-pyrazol-1-yl]cyclobutyl}acetonitrile]
>10	< 10 nM	N#CCC(C1CCN(c2nc3cccnc3o2)C1)n1cc(-c2ncnc3[nH]ccc23)cn1 (stereo not shown) [Example 4, 3-(1-[1,3]oxazolo[5,4-b]pyridin-2-ylpyrrolidin-3-yl)-3-[4-(7H-pyrrolo[2,3-. d]pyrimidin-4-yl)-1H-pyrazol-1-yl]propanenitrile]
